Key:
Platelet = assay: Tumor cell (B16a) induced platelet aggregation (TCIPA); format: cell-based, human; details: for effect on tumor cell induced platelet aggregation (in words): 400 micrograms/ml to 0.4 micrograms/ml
Description: Blood (45 ml) was drawn from the […] vein of healthy, fasted, aspirin free (at least two weeks) human volunteers into a plastic syringe containing 5 ml of 4.8% dextrose with 50 U/ml heparin buffered by 25 mM HEPES, pH 7.5. An 18 gauge needle was used to prevent hemolysis. The heparinized blood was gently mixed by inverting the syringe five times and then the blood was transfused into two 40 ml plastic centrifuge tubes and centrifuged for 10 min at 163×g. The resulting platelet rich plasma (PRP; the supernatant fraction) was decanted using an adjustable SMI pipette set at 6 ml. Platelet poor plasma (PPP) was prepared by centrifugation of PRP for 10 min at 1086×g. Platelet poor plasma was used to standardize the platelet concentration in PRP to 3×10^8 /ml. Platelet concentrations were determined using a Coulter Model ZBI cell counter.
Platelet aggregation was measured photometrically using a Sienco Model DP-247E dual channel aggregometer and recorded on a Sienco Model B-5000 dual channel recorder. Aliquots of PRP (250 microliters at 3×10^8 platelets/ml) were transferred into aggregometry cuvettes and stirred at a constant speed of 800 RPM at 37° C. Platelet aggregation studies were designed and run as individually controlled samples. BAY e 9736 was dissolved in either PEG-400 or […] (DMSO).
BAY e 9736 in PEG-400 alone was aliquoted into the cuvettes prior to the addition of the PRP. Immediately after the addition of the PRP, the cuvettes were placed into the aggregometer. After two minutes (to allow for the stabilization of the platelet preparation and mixing of the BAY e 9736), ADP or tumor cells were added in 20 microliter aliquots to induce platelet aggregation.
A 20 milligram sample of BAY e 9736 was dissolved in 1 ml of polyethylene glycol (PEG-400) and serially diluted with PEG-400 to 2, 0.2 and 0.02 mg/ml concentrations using PEG-400. Tumor cell induced platelet aggregation (TCIPA) studies were performed as described previously. The effect of BAY e 9736 on TCIPA was determined by the mixing of 2 or 5 microliter aliquots of 20, 2, 0.2 or 0.02 mg/ml BAY e 9736 and the platelet rich plasma (PRP) for approximately 3 minutes prior to the addition of tumor cells.

B16a Tumor Cells [1] = assay: In vitro proliferation of B16a tumor cells; format: cell-based, mouse; details: for effect on tumor cell proliferation (in words): B16a cells, 10-40 micrograms/ml, five day assay
Description: Proliferation studies were designed to measure the effects of BAY e 9736 on the proliferation of B16 a tumor cells. B16a tumor cells were plated into T-25 flasks (4×10^4 cells/flask) and allowed to grow at 37° C. for 16 hours. The media was removed from the flasks and plating efficiency was determined using a Coulter counter. Replacement media was added to the flasks, which were allowed to incubate for 24 hours. After the 24 hour incubation, 10 microliters of control (media), DMSO, or BAY e 9736 in DMSO (40 mg/ml stock) was added to the flasks. Media replacement with and without BAY e 9736 were performed every 24 hours for 4 consecutive days. Control flasks (3) were terminated every day of the proliferation study with 4 terminated on the final day.
A 40 mg aliquot of BAY e 9736 was dissolved in 1 milliliter dimethyl sulfoxide (DMSO). Aliquots of this 40 mg/ml stock were diluted with DMSO to final concentrations of 20 and 10 mg/ml. At day two and each successive day, 10 microliter aliquots of 40, 20, and 10 mg/ml BAY e 9736 were added once a day to the new media of flasks containing proliferating B16a tumor cells as previously described.

B16a Tumor Cells [2] = assay: "Spontaneous" lung metastasis from an in vivo subcutaneous implant of B16a tumor cells; design: species or system mouse; details: mice; for % of Control (mean number of pulmonary metastases): oral once daily, 27 days, x ± SEM, N = 10, control = 100%; for reduction of spontaneous metastasis (in words): chronic oral administration
Source text: B16 amelanotic melanoma (B16a) and Walker 256 L-Pam carcinosarcoma were obtained from the Division of Cancer Treatment, Animal and Human Tumor Bank, Mason Research Institute, Worcester, Mass. Tumors were passaged four times after receipt in syngeneic C57BL/6J male mice (B16a) or allogenic Sprague Dawley rats (Walker 256 L-Pam). Passaging involved subcutaneous implantations of tumor pices (diced to approximately 2×2 MM) into the right auxiliary region using a 18 gauge needle. Mice weighing approximately 20 grams (4 to 5 weeks old) were used to passage the B16a cell line and female rats were used to passage the Walker 256 L-Pam cell line. Animals were housed under identical conditions of temperature, feeding, photoperiod, etc. The transplanted tumors were allowed to grow for approximately 14 days following implantation.
The B16a tumor cells, obtained by the previously described procedure of tumor dispersion and tumor cell elutriation were used to test the antimetastatic effect of BAY e 9736.
The effect of chronic oral administration of BAY e 9736 on spontaneous lung metastasis from a primary subcutaneous B16a tumor was also determined. A 16 mg portion of BAY e 9736 was dissolved in 1 ml of PEG-400 and diluted 1:8, 1:32, 1:80, and 1:800. Syngeneic C56BL/6J mice were injected subcutaneously with 1×10^5 B16a tumor cells in 0.1 ml prepared as previously described. Starting one day post tumor injection, the mice were administered BAY e 9736 orally once a day for 27 days with 0.1 ml of the diluted BAY e 9736. The control and treated mice were housed under identical conditions of temperature, feeding and photoperiod, etc. The mice were sacrificed 28 days after the injection of tumor cells and the lungs were removed in Bouin's solution and visible bilateral metastasis counted.

With `COCCOC(=O)C1=C(C)NC(C)=C(C(=O)OC(C)C)C1c1cccc([N+](=O)[O-])c1` (stereo not drawn) [BAY e 9736, 1,4-dihydro-2,6-dimethyl-4-(3' nitrophenyl)-pyridine-3-(beta-methyoxyethylester)-5-(isopropyl ester)] the “% Inhibition of Tumor Cell Induced Platelet Aggregation” value (Platelet; 0.00015 mg/ml final) was “No effect”, the “% Inhibition of Tumor Cell Induced Platelet Aggregation” value (Platelet; 0.004 mg/ml final (second line so printed, below 0.0015)) was “No effect” and the “effect on tumor cell induced platelet aggregation (in words)” value (Platelet) was “does inhibit TCIPA”. The “effect on tumor cell induced platelet aggregation (in words)” value (Platelet; listed as nimodipine) was “greatly inhibit platelet aggregation induced by tumor cells”, the inhibition at 1.5 µg/mL (Platelet; Homo sapiens, Platelet, 0.0015 mg/ml final, x ± SEM, n = 3) was 12 ± 4.1% and the inhibition at 4 µg/mL (Platelet; Homo sapiens, Platelet, 0.004 mg/ml final, x ± SEM, n = 3) was 19 ± 5.9%. For the same compound, the inhibition at 15 µg/mL (Platelet; Homo sapiens, Platelet, 0.015 mg/ml final, x ± SEM, n = 3) was 32 ± 3.5%, the inhibition at 40 µg/mL (Platelet; Homo sapiens, Platelet, 0.04 mg/ml final, x ± SEM, n = 3) was 55 ± 7.7% and the inhibition at 150 µg/mL (Platelet; Homo sapiens, Platelet, 0.15 mg/ml final, x ± SEM, n = 3) was 67 ± 8.5%. The inhibition at 400 µg/mL (Platelet; Homo sapiens, Platelet, 0.4 mg/ml final, x ± SEM, n = 3) was 85 ± 9.6%, the “effect on platelet aggregation, dissolved in PEG-400 vs DMSO” value (Platelet; preliminary aggregometry studies) was “no statistically significant differences” and the “effect on tumor cell proliferation (in words)” value (B16a Tumor Cells [1]) was “inhibits tumor cell proliferation”. The “effect on tumor cell proliferation (in words)” value (B16a Tumor Cells [1]; listed as nimodipine) was “decreases the rate of tumor cell growth over a five day assay period”, the activity at 10 µg/mL (B16a Tumor Cells [1]; Mus musculus, .01 mg/ml, drug readded once daily, x ± SEM, n = 4, read-out: % of Control Tumor Cell Number) was 50 ± 5% and the activity at 20 µg/mL (B16a Tumor Cells [1]; Mus musculus, .02 mg/ml, drug readded once daily, x ± SEM, n = 4, read-out: % of Control Tumor Cell Number) was 25 ± 5%. The activity at 40 µg/mL (B16a Tumor Cells [1]; Mus musculus, .04 mg/ml, drug readded once daily, x ± SEM, n = 4, read-out: % of Control Tumor Cell Number) was 14 ± 3%, the “% of Control (mean number of pulmonary metastases)” value (shortened to “% of Control”) (B16a Tumor Cells [2]; 0.1 mg/kg) was 68 ± 14% and the “% of Control” value (B16a Tumor Cells [2]; 1.0 mg/kg) was 45 ± 9%. The “% of Control” value (B16a Tumor Cells [2]; 2.5 mg/kg) was 33 ± 22%, the “% of Control” value (B16a Tumor Cells [2]; 10.0 mg/kg) was 28 ± 7% and the “% of Control” value (B16a Tumor Cells [2]; 80.0 mg/kg) was 19 ± 6%. The “reduction of spontaneous metastasis (in words)” value (B16a Tumor Cells [2]) was “effective in decreasing the number of spontaneous metastasis as compared to the control mice” and the “reduction of spontaneous metastasis (in words)” value (B16a Tumor Cells [2]; listed as nimodipine) was “significantly reduce spontaneous metastasis”.

Source: US4690935A, “Inhibition of tumor growth and metastasis with calcium channel blocker compounds” (Wayne State University, priority 1983, dated 1987)
